The text below walks through data of ChEMBL document CHEMBL3991601, “The target landscape of clinical kinase drugs” (Science, 2017).

Test [1] deals with Ribosomal protein S6 kinase alpha-6 (Homo sapiens, UniProt Q9UK32).
The target in test [2] is RAC-alpha serine/threonine-protein kinase (Homo sapiens, UniProt P31749).
A further test concerns the target T1, Ephrin type-B receptor 6 (Homo sapiens, UniProt O15197).
T1 sequence (O15197 whole entry): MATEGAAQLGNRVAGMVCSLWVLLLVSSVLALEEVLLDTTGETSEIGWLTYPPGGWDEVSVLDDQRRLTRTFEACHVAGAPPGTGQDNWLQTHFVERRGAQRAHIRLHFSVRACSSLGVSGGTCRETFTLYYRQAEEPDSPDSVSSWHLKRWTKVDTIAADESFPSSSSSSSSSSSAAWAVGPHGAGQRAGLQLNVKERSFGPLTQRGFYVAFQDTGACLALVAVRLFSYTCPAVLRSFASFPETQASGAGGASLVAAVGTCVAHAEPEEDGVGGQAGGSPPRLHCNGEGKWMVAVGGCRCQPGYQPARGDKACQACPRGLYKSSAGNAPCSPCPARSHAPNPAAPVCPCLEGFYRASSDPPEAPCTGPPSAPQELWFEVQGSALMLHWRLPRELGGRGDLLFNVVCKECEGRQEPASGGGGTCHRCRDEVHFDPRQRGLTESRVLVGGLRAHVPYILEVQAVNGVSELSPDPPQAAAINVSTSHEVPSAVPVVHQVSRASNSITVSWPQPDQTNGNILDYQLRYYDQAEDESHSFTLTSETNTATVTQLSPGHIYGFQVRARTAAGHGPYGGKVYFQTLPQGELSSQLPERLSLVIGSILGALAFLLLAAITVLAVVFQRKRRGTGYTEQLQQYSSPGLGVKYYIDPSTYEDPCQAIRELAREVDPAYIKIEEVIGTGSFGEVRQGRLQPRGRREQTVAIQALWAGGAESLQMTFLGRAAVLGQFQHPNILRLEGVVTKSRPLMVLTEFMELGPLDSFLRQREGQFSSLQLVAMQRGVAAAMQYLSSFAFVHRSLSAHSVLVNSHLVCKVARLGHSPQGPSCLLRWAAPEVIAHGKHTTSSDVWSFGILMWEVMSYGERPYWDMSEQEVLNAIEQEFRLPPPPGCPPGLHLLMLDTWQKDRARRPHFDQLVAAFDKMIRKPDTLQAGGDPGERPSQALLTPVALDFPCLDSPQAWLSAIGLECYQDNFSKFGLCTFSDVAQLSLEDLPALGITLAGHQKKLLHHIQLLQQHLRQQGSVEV

For test [3], the target named is DnaJ homolog subfamily A member 1 (Homo sapiens, UniProt P31689).
The target of test [4] is Serine/threonine-protein kinase 10 (Homo sapiens, UniProt O94804).
Test [5] addresses T2, Dual specificity mitogen-activated protein kinase kinase 3 (Homo sapiens, UniProt P46734).
T2 sequence (P46734 whole entry): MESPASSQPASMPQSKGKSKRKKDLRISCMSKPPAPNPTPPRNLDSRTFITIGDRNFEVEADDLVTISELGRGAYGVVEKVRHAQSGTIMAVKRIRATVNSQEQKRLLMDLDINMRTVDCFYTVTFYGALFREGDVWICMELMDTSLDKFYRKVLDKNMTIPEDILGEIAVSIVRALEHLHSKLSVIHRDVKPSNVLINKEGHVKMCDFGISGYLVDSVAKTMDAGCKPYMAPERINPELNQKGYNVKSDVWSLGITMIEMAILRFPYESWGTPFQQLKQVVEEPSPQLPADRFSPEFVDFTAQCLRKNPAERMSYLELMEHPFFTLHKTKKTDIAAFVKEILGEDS

Test [6] addresses Dual specificity mitogen-activated protein kinase kinase 2 (Homo sapiens, UniProt P36507).
In test [7] the target is T3, Electron transfer flavoprotein subunit beta (Homo sapiens, UniProt P38117).
T3 sequence (P38117 whole entry): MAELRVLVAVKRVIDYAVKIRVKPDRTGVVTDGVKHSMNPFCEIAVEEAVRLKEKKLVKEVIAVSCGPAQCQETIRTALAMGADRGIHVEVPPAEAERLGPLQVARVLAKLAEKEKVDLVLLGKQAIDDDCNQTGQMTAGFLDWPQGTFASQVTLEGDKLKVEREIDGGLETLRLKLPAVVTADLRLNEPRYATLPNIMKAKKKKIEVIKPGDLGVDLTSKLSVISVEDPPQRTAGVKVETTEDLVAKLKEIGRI

For test [8], the target named is Glycogen synthase kinase-3 alpha (Homo sapiens, UniProt P49840).
Test [9] addresses T4, Membrane-associated tyrosine- and threonine-specific cdc2-inhibitory kinase (Homo sapiens, UniProt Q99640).
T4 sequence (Q99640 whole entry): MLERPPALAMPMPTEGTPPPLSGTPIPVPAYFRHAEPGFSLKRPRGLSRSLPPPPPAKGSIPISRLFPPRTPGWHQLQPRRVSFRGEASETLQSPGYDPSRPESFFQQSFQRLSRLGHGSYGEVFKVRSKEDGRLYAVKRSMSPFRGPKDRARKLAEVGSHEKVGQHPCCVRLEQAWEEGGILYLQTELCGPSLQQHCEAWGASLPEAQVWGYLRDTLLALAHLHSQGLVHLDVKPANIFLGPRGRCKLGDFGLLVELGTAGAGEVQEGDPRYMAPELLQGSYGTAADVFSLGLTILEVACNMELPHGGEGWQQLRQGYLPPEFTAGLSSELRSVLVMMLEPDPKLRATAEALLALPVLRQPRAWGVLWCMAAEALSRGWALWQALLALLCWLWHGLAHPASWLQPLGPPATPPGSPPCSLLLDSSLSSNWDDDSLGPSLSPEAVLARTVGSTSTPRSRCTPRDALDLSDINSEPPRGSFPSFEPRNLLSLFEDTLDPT

The target in test [10] is BMP-2-inducible protein kinase (Homo sapiens, UniProt Q9NSY1).
In test [11] the target is Atypical kinase COQ8A, mitochondrial (Homo sapiens, UniProt Q8NI60).
A further test addresses Ephrin type-A receptor 5 (Homo sapiens, UniProt P54756).
Test [12] concerns the target Dual specificity protein kinase CLK1 (Homo sapiens, UniProt P49759).
The target in test [13] is MAP kinase-activated protein kinase 2 (Homo sapiens, UniProt P49137).
The target in test [14] is Interleukin-1 receptor-associated kinase 1 (Homo sapiens, UniProt P51617).

The source made the active and inactive calls. Cut-off read from the data, not from the text of the source, for most assays here: actives have a measured Kd and inactives only a lower limit.

For orientation: Kd means the free concentration of one partner at which half of the binding sites on the other are occupied at equilibrium, for simple one-to-one binding.
Note: in the data inactive means no Kd found up to 30 µM.

Chain of Serine/threonine-protein kinase 10 (O94804 whole entry): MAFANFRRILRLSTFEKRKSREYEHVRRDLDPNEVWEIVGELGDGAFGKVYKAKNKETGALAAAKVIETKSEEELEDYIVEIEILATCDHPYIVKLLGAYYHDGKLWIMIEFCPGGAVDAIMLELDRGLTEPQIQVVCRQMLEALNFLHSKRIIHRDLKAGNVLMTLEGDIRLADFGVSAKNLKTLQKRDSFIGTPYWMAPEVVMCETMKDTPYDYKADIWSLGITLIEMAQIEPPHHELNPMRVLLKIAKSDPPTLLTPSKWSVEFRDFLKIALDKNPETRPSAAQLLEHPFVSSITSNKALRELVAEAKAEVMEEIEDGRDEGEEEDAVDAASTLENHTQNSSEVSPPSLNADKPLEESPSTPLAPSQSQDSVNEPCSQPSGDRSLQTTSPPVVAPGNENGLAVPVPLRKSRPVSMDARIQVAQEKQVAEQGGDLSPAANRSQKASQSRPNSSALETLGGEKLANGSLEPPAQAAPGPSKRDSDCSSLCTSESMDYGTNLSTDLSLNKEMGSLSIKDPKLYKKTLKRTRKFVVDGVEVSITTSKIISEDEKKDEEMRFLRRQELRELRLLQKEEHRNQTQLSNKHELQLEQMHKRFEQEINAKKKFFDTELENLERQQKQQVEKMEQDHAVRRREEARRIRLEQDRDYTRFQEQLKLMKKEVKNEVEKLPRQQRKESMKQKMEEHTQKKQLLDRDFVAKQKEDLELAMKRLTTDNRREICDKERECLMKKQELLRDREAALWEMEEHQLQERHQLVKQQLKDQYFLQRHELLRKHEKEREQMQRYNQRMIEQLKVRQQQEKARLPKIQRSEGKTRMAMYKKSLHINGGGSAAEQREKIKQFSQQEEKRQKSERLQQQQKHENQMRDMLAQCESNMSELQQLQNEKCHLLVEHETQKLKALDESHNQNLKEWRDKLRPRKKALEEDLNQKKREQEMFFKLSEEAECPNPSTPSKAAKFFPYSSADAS
Chain of Ribosomal protein S6 kinase alpha-6 (Q9UK32 whole entry): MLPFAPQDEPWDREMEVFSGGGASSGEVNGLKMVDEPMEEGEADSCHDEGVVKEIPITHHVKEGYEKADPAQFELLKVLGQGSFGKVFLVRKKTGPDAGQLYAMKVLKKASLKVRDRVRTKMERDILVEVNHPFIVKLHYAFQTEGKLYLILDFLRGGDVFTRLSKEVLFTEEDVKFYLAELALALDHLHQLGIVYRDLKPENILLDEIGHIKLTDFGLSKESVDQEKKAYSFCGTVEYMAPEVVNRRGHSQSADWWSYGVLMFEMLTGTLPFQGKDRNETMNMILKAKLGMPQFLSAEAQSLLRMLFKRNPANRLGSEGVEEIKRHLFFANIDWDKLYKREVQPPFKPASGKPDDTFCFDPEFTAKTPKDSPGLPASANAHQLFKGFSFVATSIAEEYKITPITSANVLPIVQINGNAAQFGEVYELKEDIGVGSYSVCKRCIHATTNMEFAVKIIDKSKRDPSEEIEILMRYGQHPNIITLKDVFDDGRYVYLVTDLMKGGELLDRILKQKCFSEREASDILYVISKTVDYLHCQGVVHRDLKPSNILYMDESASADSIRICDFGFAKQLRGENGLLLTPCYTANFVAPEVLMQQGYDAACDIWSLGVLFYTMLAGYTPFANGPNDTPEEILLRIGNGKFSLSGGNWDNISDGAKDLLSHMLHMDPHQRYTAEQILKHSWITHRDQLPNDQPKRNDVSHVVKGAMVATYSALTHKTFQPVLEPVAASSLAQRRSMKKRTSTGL
Chain of Dual specificity protein kinase CLK1 (P49759 whole entry): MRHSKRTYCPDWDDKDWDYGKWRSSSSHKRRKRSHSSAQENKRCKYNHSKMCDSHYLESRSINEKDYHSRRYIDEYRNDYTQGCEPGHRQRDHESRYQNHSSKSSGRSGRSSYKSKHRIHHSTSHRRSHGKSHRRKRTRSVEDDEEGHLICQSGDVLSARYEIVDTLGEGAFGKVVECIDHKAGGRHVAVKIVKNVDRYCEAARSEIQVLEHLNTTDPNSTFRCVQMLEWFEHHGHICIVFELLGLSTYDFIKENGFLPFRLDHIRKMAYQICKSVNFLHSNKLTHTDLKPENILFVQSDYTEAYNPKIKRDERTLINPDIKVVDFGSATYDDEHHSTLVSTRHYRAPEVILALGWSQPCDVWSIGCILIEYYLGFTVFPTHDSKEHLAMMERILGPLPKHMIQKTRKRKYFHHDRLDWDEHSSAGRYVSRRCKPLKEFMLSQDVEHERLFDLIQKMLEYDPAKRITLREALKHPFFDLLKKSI
Chain of Ephrin type-A receptor 5 (P54756 whole entry): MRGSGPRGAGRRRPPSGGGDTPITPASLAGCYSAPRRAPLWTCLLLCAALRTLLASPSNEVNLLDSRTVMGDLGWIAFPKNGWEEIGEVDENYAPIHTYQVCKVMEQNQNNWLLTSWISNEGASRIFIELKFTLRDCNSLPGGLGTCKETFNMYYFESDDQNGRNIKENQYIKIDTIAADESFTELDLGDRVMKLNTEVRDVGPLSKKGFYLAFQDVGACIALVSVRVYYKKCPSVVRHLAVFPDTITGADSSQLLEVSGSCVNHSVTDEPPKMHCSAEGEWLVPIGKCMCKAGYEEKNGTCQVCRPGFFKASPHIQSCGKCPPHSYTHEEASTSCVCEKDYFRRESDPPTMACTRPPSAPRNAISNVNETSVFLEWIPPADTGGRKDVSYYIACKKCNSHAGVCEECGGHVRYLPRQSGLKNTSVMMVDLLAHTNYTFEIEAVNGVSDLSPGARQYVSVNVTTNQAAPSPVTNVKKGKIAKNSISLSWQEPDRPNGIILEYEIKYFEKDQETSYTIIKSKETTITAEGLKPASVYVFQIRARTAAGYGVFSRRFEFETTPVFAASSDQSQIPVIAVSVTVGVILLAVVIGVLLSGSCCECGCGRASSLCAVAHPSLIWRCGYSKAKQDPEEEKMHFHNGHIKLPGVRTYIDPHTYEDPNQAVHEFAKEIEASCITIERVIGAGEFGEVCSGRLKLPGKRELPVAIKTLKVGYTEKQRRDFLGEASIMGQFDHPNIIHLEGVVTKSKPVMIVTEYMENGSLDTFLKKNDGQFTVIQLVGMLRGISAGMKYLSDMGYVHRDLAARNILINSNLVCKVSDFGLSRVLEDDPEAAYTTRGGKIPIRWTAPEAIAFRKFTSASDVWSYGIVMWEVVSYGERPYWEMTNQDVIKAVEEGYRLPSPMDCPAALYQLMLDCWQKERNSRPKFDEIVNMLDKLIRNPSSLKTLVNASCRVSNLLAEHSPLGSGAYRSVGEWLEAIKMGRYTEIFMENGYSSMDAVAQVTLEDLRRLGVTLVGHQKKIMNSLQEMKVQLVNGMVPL
Chain of Glycogen synthase kinase-3 alpha (P49840 whole entry): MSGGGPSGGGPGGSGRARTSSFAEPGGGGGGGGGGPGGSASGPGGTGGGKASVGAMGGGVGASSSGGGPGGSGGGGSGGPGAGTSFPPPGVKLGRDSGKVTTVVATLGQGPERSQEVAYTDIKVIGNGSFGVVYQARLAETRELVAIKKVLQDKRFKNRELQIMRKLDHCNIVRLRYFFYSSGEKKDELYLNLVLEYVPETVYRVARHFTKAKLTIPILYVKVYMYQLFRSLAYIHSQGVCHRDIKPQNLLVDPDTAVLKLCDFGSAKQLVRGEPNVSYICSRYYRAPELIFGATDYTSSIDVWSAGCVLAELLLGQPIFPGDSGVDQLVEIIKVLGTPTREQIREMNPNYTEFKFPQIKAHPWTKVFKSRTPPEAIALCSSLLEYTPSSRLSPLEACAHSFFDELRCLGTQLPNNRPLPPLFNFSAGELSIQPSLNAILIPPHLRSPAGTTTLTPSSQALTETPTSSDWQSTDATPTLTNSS
Chain of Atypical kinase COQ8A, mitochondrial (Q8NI60 whole entry): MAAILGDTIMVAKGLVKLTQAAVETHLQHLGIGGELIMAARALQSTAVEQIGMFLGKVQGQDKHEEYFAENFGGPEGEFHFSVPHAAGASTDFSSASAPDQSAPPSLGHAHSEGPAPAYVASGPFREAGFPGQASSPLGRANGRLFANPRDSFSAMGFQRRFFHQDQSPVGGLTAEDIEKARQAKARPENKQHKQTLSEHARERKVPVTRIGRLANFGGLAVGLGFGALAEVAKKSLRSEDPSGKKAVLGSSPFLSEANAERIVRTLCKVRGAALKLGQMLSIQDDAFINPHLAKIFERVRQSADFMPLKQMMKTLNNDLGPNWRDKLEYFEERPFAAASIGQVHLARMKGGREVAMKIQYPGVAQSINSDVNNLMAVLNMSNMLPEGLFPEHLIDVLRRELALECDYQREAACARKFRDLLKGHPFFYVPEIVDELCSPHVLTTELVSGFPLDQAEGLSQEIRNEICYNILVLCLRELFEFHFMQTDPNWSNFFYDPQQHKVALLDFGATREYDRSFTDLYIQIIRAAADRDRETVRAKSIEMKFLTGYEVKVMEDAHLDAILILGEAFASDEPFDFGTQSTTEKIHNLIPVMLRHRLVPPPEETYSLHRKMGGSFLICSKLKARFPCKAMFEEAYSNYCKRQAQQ
Chain of DnaJ homolog subfamily A member 1 (P31689 whole entry): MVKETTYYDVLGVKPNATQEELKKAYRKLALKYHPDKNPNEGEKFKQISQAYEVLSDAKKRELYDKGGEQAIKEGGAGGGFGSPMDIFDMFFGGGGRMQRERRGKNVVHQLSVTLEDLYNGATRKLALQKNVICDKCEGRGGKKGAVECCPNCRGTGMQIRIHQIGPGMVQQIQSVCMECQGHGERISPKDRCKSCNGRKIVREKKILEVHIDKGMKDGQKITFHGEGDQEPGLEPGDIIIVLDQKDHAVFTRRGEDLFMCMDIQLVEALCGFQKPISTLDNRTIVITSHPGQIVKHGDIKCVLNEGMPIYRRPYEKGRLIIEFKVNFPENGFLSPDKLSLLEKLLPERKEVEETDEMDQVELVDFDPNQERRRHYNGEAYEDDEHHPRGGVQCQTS

`COc1cc2nccc(Oc3ccc(NC(=O)NC4CC4)c(Cl)c3)c2cc1C(N)=O` [LENVATINIB]: the Kd was > 30 µM (inactive) in test [1]; > 30 µM (inactive) in test [2]; > 30 µM (inactive) at Ephrin type-B receptor 6; > 30 µM (inactive) in [3]; 0.793 µM (active) in test [4]; > 30 µM (inactive) in [5]. In addition, the Kd in [6], in test [7], in test [8], in [9], in [10] and in [11] was > 30 µM (inactive) throughout. The Kd at Ephrin type-A receptor 5 is > 30 µM (inactive); in test [12] it was > 30 µM (inactive); in [13] it was 0.063 µM (active).
With `CNC(=O)c1ccc(C)c(-n2c(C)cc(OCc3ccc(F)cc3F)c(Br)c2=O)c1` [PH-797804], the Kd (in test [1]; in test [2]; at Ephrin type-B receptor 6; in [3]; in [4]; in test [5]) was > 30 µM (inactive) throughout. The Kd in test [6], in [7], in [8], in test [9], in test [10] and in test [11] was > 30 µM (inactive) in each case. For the same molecule, the Kd (in test [14]; on Ephrin type-A receptor 5; in [12]) was > 30 µM (inactive) in each case.
For `Cc1nc(N)sc1-c1ccnc(Nc2ccc(N3CCOCC3)cc2)n1` [CYC-116], the Kd was > 30 µM (inactive) in test [1]; 0.073 µM on Ephrin type-B receptor 6; > 30 µM (inactive) in [3]; > 30 µM (inactive) in [5]; > 30 µM (inactive) in test [6]; > 30 µM (inactive) in test [7]. Also, the Kd is > 30 µM (inactive) in [9], 0.007 µM (active) in [10], 65.3 µM (active) in test [11] and 0.586 µM (active) in test [12].
Consider `C[C@@H](c1ccc2nccn2c1)n1nnc2ncc(-c3cnn(C)c3)nc21` [SAVOLITINIB], for which the Kd (in test [1]; in [2]; at Ephrin type-B receptor 6; in test [3]; in test [4]; in [5]) was > 30 µM (inactive) in each case. For the same molecule, the Kd in test [6], in test [7], in [8], in test [9], in [10] and in test [11] was > 30 µM (inactive) in each case. Also, the Kd (in test [14]; at Ephrin type-A receptor 5; in [12]) was > 30 µM (inactive) in each case.
With `Cn1ncc(Cl)c1-c1cc(C(=O)N[C@H](CN)Cc2cccc(F)c2)sc1Cl` [AFURESERTIB], the Kd (in test [1]; on Ephrin type-B receptor 6; in test [3]; in test [4]; in [5]; in [6]) was > 30 µM (inactive) throughout. Further, the Kd in test [7], in [8], in [9], in test [10], in test [11] and in test [14] was > 30 µM (inactive) each time. Moreover, the Kd (on Ephrin type-A receptor 5; in test [13]) was > 30 µM (inactive) each time.
